Results: US9586958B2, “Prodrug derivatives of substituted triazolopyridines” (BAYER PHARMA AKTIENGESELLSCHAFT, priority 2013, dated 2017)

Key:
[1] = In vitro stability in rat plasma (HPLC detection); assay type: in vitro ADME; settings: 37° C.
Description: 1 mg of test compound is dissolved in 1.25 ml dimethylsulfoxide. Then 1.25 ml water are added. 0.5 ml of this sample solution are mixed with 0.5 ml heparinized and 37° C. warm plasma (wistar rat plasma or human plasma). A first sample (10 μl) is immediately taken for HPLC analysis. In the period up to 4 h after the start of incubation further 10 μl aliquots are taken after 30, 60, 90, 120 and 240 minutes and the amount of the test compound is determined.
Agilent 1100 with DAD (G1315A), binary pump (G1312A), autosampler (G1329A), column oven (G1316A), thermostat (G1330B); column: Kromasil 100 C18, 250 mm×4 mm, 5 μm; column temperature: 45° C.; eluent A: water+5 ml of perchloric acid/liter, eluent B: acetonitrile.

[2] = Stability in buffer at pH 7.4 (HPLC); assay type: physicochemical; settings: buffer pH 7.4, 37° C.
Description: 0.3 mg of the test compound are solved in 0.1 ml dimethylsulfoxide and 0.4 ml acetonitrile. For complete dissolution the HPLC vial with the sample solution is sonified for about 20 seconds. Then 1.0 ml of the buffer solution is added, and the sample is again treated in the ultrasonic bath.
90 g of sodium chloride, 13.61 g of potassium dihydrogen phosphate and 83.35 g of 1 M sodium hydroxide solution are made up to 1 liter with Millipore water and then diluted 1:10.
10 μl portions of the sample solution are analysed by HPLC to determine the amount of the test compound over a period of 24 hours at 37° C. The peak areas in percentage are used for quantification.
Agilent 1100 with DAD (G1315B), binary pump (G1312A), autosampler (G1329A), column oven (G1316A), thermostat (G1330B); column: Kromasil 100 C18, 250 mm×4 mm, 5 μm; column temperature: 37° C.; eluent A: water+5 ml of perchloric acid/liter, eluent B: acetonitrile.
The ratio of the peak areas (F) at different time points in relation to the peak areas at the starting time are shown in Table 2 for representative examples: […]

| Compound | % Test Compound after 4 h [F(t = 24 h) × 100/F(t = 0 h)] [1] | % Test Compound after 24 h [F(t = 24 h) × 100/F(t = 0 h)] [2] | % Test Compound after 4 h [F(t = 24 h) × 100/F(t = 0 h)] ([1]; hydrochloride) | % Test Compound after 24 h [F(t = 24 h) × 100/F(t = 0 h)] ([2]; measured for formic acid salt) |
| --- | --- | --- | --- | --- |
| COc1cc(S(C)(=O)=O)ccc1N(C(=O)OC(C)OC(=O)[C@@H](NC(=O)[C@@H](N)CCCCN)C(C)C)c1nc2ccc(-c3ccc(NC(=O)[C@H](C)c4ccc(F)cc4)cc3)cn2n1.Cl.Cl (mixture of isomers) [Example 2.2, (1RS)-1-({[6-(4-{[(2R)-2-(4-fluorophenyl)propanoyl]amino}phenyl)[1,2,4]triazolo[1,5-α]pyridin-2-yl][2-methoxy-4-(methylsulfonyl)phenyl]carbamoyl}oxy)ethyl L-lysyl-L-valinate dihydrochloride] | 5% | 0.0% | – | – |
| COc1cc(S(C)(=O)=O)ccc1N(C(=O)OC(C)OC(=O)[C@@H](NC(=O)[C@@H](N)C(C)C)C(C)C)c1nc2ccc(-c3ccc(NC(=O)[C@H](C)c4ccc(F)cc4)cc3)cn2n1.Cl (mixture of isomers) [Example 2.4, (1RS)-1-({[6-(4-{[(2R)-2-(4-fluorophenyl)propanoyl]amino}phenyl)[1,2,4]triazolo[1,5-α]pyridin-2-yl][2-methoxy-4-(methylsulfonyl)phenyl]carbamoyl}oxy)ethyl L-valyl-L-valinate hydrochloride] | 45% | 48% | – | – |
| COc1cc(S(C)(=O)=O)ccc1N(C(=O)OC(C)OC(=O)[C@@H](N)C(C)C)c1nc2ccc(-c3ccc(NC(=O)[C@H](C)c4ccc(F)cc4)cc3)cn2n1.Cl (mixture of isomers) [Example 3.1, (1RS)-1-({[6-(4-{[(2R)-2-(4-fluorophenyl)propanoyl]amino}phenyl)[1,2,4]triazolo[1,5-α]pyridin-2-yl][2-methoxy-4-(methylsulfonyl)phenyl]carbamoyl}oxy)ethyl L-valinate hydrochloride] | 0.0% | 0.0% | – | – |
| COc1cc(S(C)(=O)=O)ccc1N(C(=O)OC(C)OC(=O)[C@@H](N)C(C)(C)C)c1nc2ccc(-c3ccc(NC(=O)[C@H](C)c4ccc(F)cc4)cc3)cn2n1.Cl (mixture of isomers) [Example 3.2, (1RS)-1-({[6-(4-{[(2R)-2-(4-fluorophenyl)propanoyl]amino}phenyl)[1,2,4]triazolo[1,5-α]pyridin-2-yl][2-methoxy-4-(methylsulfonyl)phenyl]carbamoyl}oxy)ethyl 3-methyl-L-valinate hydrochloride] | 0.0% | 0.0% | – | – |
| CC[C@H](C)[C@H](N)C(=O)OC(C)OC(=O)N(c1nc2ccc(-c3ccc(NC(=O)[C@H](C)c4ccc(F)cc4)cc3)cn2n1)c1ccc(S(C)(=O)=O)cc1OC.Cl (mixture of isomers) [Example 3.5, (1RS)-1-({[6-(4-{[(2R)-2-(4-fluorophenyl)propanoyl]amino}phenyl)[1,2,4]triazolo[1,5-α]pyridin-2-yl][2-methoxy-4-(methylsulfonyl)phenyl]carbamoyl}oxy)ethyl-L-isoleucinate hydrochloride] | 19% | – | – | – |
| COc1cc(S(C)(=O)=O)ccc1N(C(=O)OC(OC(=O)[C@@H](N)C(C)(C)C)C(C)C)c1nc2ccc(-c3ccc(NC(=O)[C@H](C)c4ccc(F)cc4)cc3)cn2n1.Cl (mixture of isomers) [Example 5.1, (1RS)-1-({[6-(4-{[(2R)-2-(4-fluorophenyl)propanoyl]amino}phenyl)[1,2,4]triazolo[1,5-α]pyridin-2-yl][2-methoxy-4-(methylsulfonyl)phenyl]carbamoyl}oxy)-2-methylpropyl 3-methyl-L-valinate hydrochloride] | 19% | 21% | – | – |
| COc1cc(S(C)(=O)=O)ccc1N(C(=O)OC(OC(=O)[C@@H](N)C(C)C)C(C)C)c1nc2ccc(-c3ccc(NC(=O)[C@H](C)c4ccc(F)cc4)cc3)cn2n1.Cl (mixture of isomers) [Example 5.4, (1RS)-1-({[6-(4-{[(2R)-2-(4-fluorophenyl)propanoyl]amino}phenyl)[1,2,4]triazolo[1,5-α]pyridin-2-yl][2-methoxy-4-(methylsulfonyl)phenyl]carbamoyl}oxy)-2-methylpropyl-L-valinate hydrochloride] | 44% | 17% | – | – |
| COc1cc(S(C)(=O)=O)ccc1N(C(=O)OC(OC(=O)C(C)(C)N)C(C)C)c1nc2ccc(-c3ccc(NC(=O)[C@H](C)c4ccc(F)cc4)cc3)cn2n1.Cl (mixture of isomers) [Example 5.5, (1RS)-1-({[6-(4-{[(2R)-2-(4-fluorophenyl)propanoyl]amino}phenyl)[1,2,4]triazolo[1,5-α]pyridin-2-yl][2-methoxy-4-(methylsulfonyl)phenyl]carbamoyl}oxy)-2-methylpropyl-2-methylalaninate hydrochloride] | 33% | – | – | – |
| COc1cc(S(C)(=O)=O)ccc1N(C(=O)OC(C)OC(=O)[C@@H](N)C(C)(C)C)c1nc2ccc(-c3ccc(NC(=O)[C@H](C)c4ccc(F)cc4)cc3)cn2n1.Cl (single isomer, unassigned) [Example 3.3, (1R or 1S)-1-({[6-(4-{[(2R)-2-(4-fluorophenyl)propanoyl]amino}phenyl)[1,2,4]triazolo[1,5-α]pyridin-2-yl][2-methoxy-4-(methylsulfonyl)phenyl]carbamoyl}oxy)ethyl-3-methyl-L-valinate hydrochloride] | – | 0.0% | 22% | – |
| CC[C@H](C)[C@H](N)C(=O)OC(C)OC(=O)N(c1nc2n(n1)CC(c1ccc(NC(=O)[C@H](C)c3ccc(F)cc3)cc1)C=C2)c1ccc(S(C)(=O)=O)cc1OC.Cl (single isomer, unassigned) [Example 3.6, (1S or 1R)-1-({[6-(4-{[(2R)-2-(4-fluorophenyl)propanoyl]amino}phenyl)[1,2,4]triazolo[1,5-α]pyridin-2-yl][2-methoxy-4-(methylsulfonyl)phenyl]carbamoyl}oxy)ethyl-isoleucinate hydrochloride] | – | 0.0% | – | – |
| CC[C@H](C)[C@H](N)C(=O)OC(C)OC(=O)N(c1nc2ccc(-c3ccc(NC(=O)[C@H](C)c4ccc(F)cc4)cc3)cn2n1)c1ccc(S(C)(=O)=O)cc1OC.Cl (single isomer, unassigned) [Example 3.7, (1R or 1S)-1-({[6-(4-{[(2R)-2-(4-fluorophenyl)propanoyl]amino}phenyl)[1,2,4]triazolo[1,5-α]pyridin-2-yl][2-methoxy-4-(methylsulfonyl)phenyl]carbamoyl}oxy)ethyl-L-isoleucinate hydrochloride] | – | 0.0% | – | – |
| COc1cc(S(C)(=O)=O)ccc1N(C(=O)OCOC(=O)C1CCNCC1)c1nc2ccc(-c3ccc(NC(=O)[C@H](C)c4ccc(F)cc4)cc3)cn2n1.O=C(O)C(F)(F)F [Example 1.1, ({[6-(4-{[(2R)-2-(4-fluorophenyl)propanoyl]amino}phenyl)[1,2,4]triazolo[1,5-α]pyridin-2-yl][2-methoxy-4-(methylsulfonyl)phenyl]carbamoyl}oxy)methyl piperidine-4-carboxylate trifluoroacetate] | – | – | – | 35.0 *) % |
| COc1cc(S(C)(=O)=O)ccc1N(C(=O)OCOC(=O)[C@@H](N)CC(C)C)c1nc2ccc(-c3ccc(NC(=O)[C@H](C)c4ccc(F)cc4)cc3)cn2n1.Cl [Example 1.3, ({[6-(4-{[(2R)-2-(4-fluorophenyl)propanoyl]amino}phenyl)[1,2,4]triazolo[1,5-α]pyridin-2-yl][2-methoxy-4-(methylsulfonyl)phenyl]carbamoyl}oxy)methyl L-leucinate hydrochloride] | 0.0% | – | – | – |
| COc1cc(S(C)(=O)=O)ccc1N(C(=O)OCOP(=O)(O)O)c1nc2ccc(-c3ccc(NC(=O)[C@H](C)c4ccc(F)cc4)cc3)cn2n1 [Example 1.6, (phosphonooxy)methyl [6-(4-{[(2R)-2-(4-fluorophenyl)propanoyl]amino}phenyl)[1,2,4]triazolo[1,5-α]pyridin-2-yl][2-methoxy-4-(methylsulfonyl)phenyl]carbamate] | 0.0% | – | – | – |
| CC(C)[C@H](N)C(=O)OCOC(=O)N(c1nc2ccc(-c3ccc(NC(=O)[C@H](C)c4ccc(F)cc4)cc3)cn2n1)c1ccc(S(C)(=O)=O)cc1OCC(F)(F)F.Cl [Example 6.2, ({[6-(4-{[(2R)-2-(4-fluorophenyl)propanoyl]amino}phenyl)[1,2,4]triazolo[1,5-α]pyridin-2-yl][4-(methylsulfonyl)-2-(2,2,2-trifluoroethoxy)phenyl]carbamoyl}oxy)methyl L-valinate hydrochloride] | 6% | – | – | – |
| CNCC(=O)N(c1nc2ccc(-c3ccc(NC(=O)[C@H](C)c4ccc(F)cc4)cc3)cn2n1)c1ccc(S(C)(=O)=O)cc1OC.O=C(O)C(F)(F)F [Example 8.1, (2R)-2-(4-fluorophenyl)-N-[4-(2-{[2-methoxy-4-(methylsulfonyl)phenyl](N-methylglycyl)amino}[1,2,4]triazolo[1,5-α]pyridin-6-yl)phenyl]propanamide trifluoroacetate] | 57% | – | – | – |
